{"source": "patent US20120119081A1", "about": "“INSECT-BASED MODEL FOR PHARMACO-KINETIC STUDIES” (priority 2009, published 2012)", "key": {"[1]": {"test": "Locust hemolymph kinetics after injection into the hemolymph (LCMS)", "experimental": "The insects may be obtained from local suppliers or bred in house. The grasshoppers were reared under crowded conditions at 28° C. and a 12:12 dark:light photocycle and fed fresh grass and bran. Before experiments the grasshoppers were fed ecologically cultivated wheat for two weeks. Animals used are adult males (in some experiments females) between two to four weeks after adult emergence. Test compounds are administrated into the hemolymph by use of a Hamilton syringe and inserting the needle between two abdominal terga or administered intraintestinal by use of a catheter or a steel probe. At various time points after administration hemolymph samples are taken for quantitative determination of drug concentration in the hemolymph. The samples are snap-frozen and stored until analyses. Drug concentration is analysed by HPLC, LC/MSMS or other methods. In studies of drug retention various organs e.g. heart, fat bodies and brain are dissected at various times after drug administration. The tissues are washed, snap-frozen and stored until analyses. At analyses the tissues are homogenized/vortexed/sonicated and centrifuged. The drug concentration in the tissues is determined as above.\n(§1) 40 ul of an approximately 5 mg/ml solution of quinidine was injected into the hemolymph of Locusts (Locusta migratoria). The test compound was administered by using a Hamilton syringe. At 5, 15, 45, 120, and 360 minutes after administration (10 ul) hemolymph was collected from each locust with a calibrated capillary tube by puncturing the ventral membrane between the head and the thorax and immediately blown into a tube containing 40 ul aqua dest and 100 ul of acetonitrile. Each sample was centrifuged for 5 minutes (10 000 g at 4° C.) and 100 ul of the supernatants were transferred to new test tubes for LCMS analysis.\nas §1, with “The” for “40 ul of an approximately 5 mg/ml solution of quinidine was injected into the hemolymph of Locusts (Locusta migratoria). The”, “000g” for “000 g”\nas §1, with “caffeine” for “quinidine”, “000g” for “000 g”\nas §1, with “The” for “40 ul of an approximately 5 mg/ml solution of quinidine was injected into the hemolymph of Locusts (Locusta migratoria). The”, “000g” for “000 g”\nMianserin was injected into the hemolymph of Locusts (Locusta migratoria). The administered volume was 40 ul (administered by using a Hamilton syringe) at a concentration of 8.8 mg/ml. At 5, 15 and 45 minutes after administration (2×20 ul) hemolymph was collected from the locusts with a calibrated capillary tube by puncturing the ventral membrane between the head and the thorax and immediately blown into a tube containing 60 ul aqua dest and 200 ul of acetonitrile."}, "[2]": {"conditions": "cited from earlier work; for Volume of distribution (in words): human / vertebrate, relative statement"}, "[3]": {"conditions": "cited from earlier work"}, "[4]": {"conditions": "Locusta migratoria, in vivo, 0.4 mg per locust (approximately)"}, "[5]": {"conditions": "locust, after intrahemolymphic administration, comparison between test compounds"}, "[6]": {"conditions": "Locusta migratoria, in vivo, 0.2 mg per locust (approximately)"}}}
{"smiles": "O=C1CC2(CCCC2)CC(=O)N1CCCCN1CCN(c2ncccn2)CC1", "note": "[buspirone]", "values": [{"measurement": "concentration at 5 min", "setting": "[1]; [4]", "result": 10.7, "unit": "µg/mL"}, {"measurement": "concentration at 15 min", "setting": "[1]; [4]", "result": 6.5, "unit": "µg/mL"}, {"measurement": "concentration at 45 min", "setting": "[1]; [4]", "result": 3.8, "unit": "µg/mL"}, {"measurement": "Hemolymph elimination / clearance (in words)", "setting": "[1]; [5]", "result": "increased elimination similar to haloperidol"}]}
{"smiles": "Cn1c(=O)c2c(ncn2C)n(C)c1=O", "note": "[caffeine]", "values": [{"measurement": "concentration at 5 min", "setting": "[1]; [6]", "result": 9.29, "unit": "µg/mL"}, {"measurement": "concentration at 15 min", "setting": "[1]; [6]", "result": 9.01, "unit": "µg/mL"}, {"measurement": "concentration at 45 min", "setting": "[1]; [6]", "result": 8.78, "unit": "µg/mL"}, {"measurement": "concentration at 120 min", "setting": "[1]; [6]", "result": 6.83, "unit": "µg/mL"}, {"measurement": "concentration at 360 min", "setting": "[1]; [6]", "result": 5.5, "unit": "µg/mL"}, {"measurement": "concentration at 5 min", "setting": "[1]; [4]", "result": 29, "unit": "µg/mL"}, {"measurement": "concentration at 15 min", "setting": "[1]; [4]", "result": 24, "unit": "µg/mL"}, {"measurement": "concentration at 45 min", "setting": "[1]; [4]", "result": 23, "unit": "µg/mL"}, {"measurement": "Hemolymph elimination / clearance (in words)", "setting": "[1]; [5]", "result": "non dose dependent hemolymph clearance"}, {"measurement": "Volume of distribution (in words)", "setting": "[2]", "result": "much lower volume of distribution compared to propranolol"}]}
{"smiles": "CN(C)C(=O)C(CCN1CCC(O)(c2ccc(Cl)cc2)CC1)(c1ccccc1)c1ccccc1", "note": "[loperamide]", "values": [{"measurement": "concentration at 5 min", "setting": "[1]; [4]", "result": 5.6, "unit": "µg/mL"}, {"measurement": "concentration at 15 min", "setting": "[1]; [4]", "result": 3, "unit": "µg/mL"}, {"measurement": "concentration at 45 min", "setting": "[1]; [4]", "result": 1.7, "unit": "µg/mL"}, {"measurement": "Solubility (in words)", "setting": "[3]", "result": "less soluble"}]}
{"smiles": "CC(C)NCC(O)COc1cccc2ccccc12", "note": "(stereo not drawn) [propranolol]", "values": [{"measurement": "Volume of distribution (in words)", "setting": "[2]", "result": "much larger volume of distribution"}, {"measurement": "Half life (in words)", "setting": "[2]; human, compared to atenolol", "result": "much shorter half life"}]}
{"smiles": "O=c1n(CCCN2CCN(c3cccc(Cl)c3)CC2)nc2ccccn12", "note": "[trazodone]", "values": [{"measurement": "Hemolymph elimination / clearance (in words)", "setting": "[1]; in vivo", "result": "stable for 15 minutes"}]}
